The assay concerns the target CDK9/CycT1 (Homo sapiens, UniProt P50750). As to the kind of experiment: CDK9 inhibitory activity, Off-chip Mobility Shift Assay (MSA). Format: biochemical. The note with it: room temperature, one hour, read-out: IC50 value with respect to CDK9/CycT1. As to the method:
[Assay of CDK9 Inhibitory Activity]
The tests for confirming CDK9 inhibitory activity were carried out by the following procedure according to Off-chip Mobility Shift Assay (MSA).
A substrate/ATP/metal solution (4×) was prepared with use of a kit buffer (20 mM HEPES, 0.01% Triton X-100, 5 mM DTT, pH7.5). A kinase solution (2×) was prepared with use of an assay buffer.
2) The test substance solutions, the substrate/ATP/metal solution, and the kinase solution were mixed in wells of a polypropylene plate, and were caused to react at room temperature for one hour.
3) A termination buffer (QuickScout Screening Assist MSA; Cama Biosciences Inc.)
was added thereto to stop the reaction.
4) Substrate peptides and phosphorylated peptides in the reaction solutions were separated and quantified in LabChip™ System (PerkinElmer Co., Ltd.).
5) Kinase reaction activities were evaluated based on a product ratio (P/(P+S)) calculated from a peak height of the substrate peptide (S) and a peak height of the phosphorylated peptide (P).
Chain of CDK9/CycT1 (P50750 whole entry): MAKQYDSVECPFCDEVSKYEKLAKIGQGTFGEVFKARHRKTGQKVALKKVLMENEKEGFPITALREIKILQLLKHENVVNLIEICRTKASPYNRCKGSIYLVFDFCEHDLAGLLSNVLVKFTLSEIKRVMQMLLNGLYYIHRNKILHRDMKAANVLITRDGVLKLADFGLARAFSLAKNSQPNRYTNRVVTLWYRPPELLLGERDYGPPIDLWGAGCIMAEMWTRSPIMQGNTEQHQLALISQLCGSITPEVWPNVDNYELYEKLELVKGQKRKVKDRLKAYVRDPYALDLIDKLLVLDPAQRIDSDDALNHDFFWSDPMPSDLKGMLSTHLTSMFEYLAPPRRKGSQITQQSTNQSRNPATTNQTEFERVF
Chain of CDK9/CycT1 (O60563 whole entry partner): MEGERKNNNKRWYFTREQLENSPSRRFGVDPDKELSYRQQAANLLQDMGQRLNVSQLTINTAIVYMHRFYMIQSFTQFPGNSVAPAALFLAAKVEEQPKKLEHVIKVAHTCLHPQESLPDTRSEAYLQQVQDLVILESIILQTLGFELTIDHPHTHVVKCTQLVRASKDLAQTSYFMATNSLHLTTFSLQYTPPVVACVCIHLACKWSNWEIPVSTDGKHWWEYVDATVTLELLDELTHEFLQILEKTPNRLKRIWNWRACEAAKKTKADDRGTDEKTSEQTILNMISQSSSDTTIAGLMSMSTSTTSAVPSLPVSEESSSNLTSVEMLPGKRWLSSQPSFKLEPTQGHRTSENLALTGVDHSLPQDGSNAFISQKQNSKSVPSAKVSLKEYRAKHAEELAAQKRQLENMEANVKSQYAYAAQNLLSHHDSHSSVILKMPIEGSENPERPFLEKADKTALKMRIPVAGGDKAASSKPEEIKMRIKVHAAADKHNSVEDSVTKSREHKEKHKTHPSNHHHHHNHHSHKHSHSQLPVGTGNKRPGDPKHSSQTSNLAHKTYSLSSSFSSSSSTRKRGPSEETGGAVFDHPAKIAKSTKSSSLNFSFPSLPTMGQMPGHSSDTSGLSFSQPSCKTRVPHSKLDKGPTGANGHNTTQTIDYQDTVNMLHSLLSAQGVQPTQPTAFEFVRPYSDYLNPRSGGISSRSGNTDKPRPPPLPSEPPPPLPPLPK
As to `O=C(Nc1cc(F)ccc1N1CCCCC1)c1ccncc1` [Compound 2], the IC50 is 13.1 µM.

In the case of `Fc1ccc(N2CCCCCC2)c(NC(=S)c2ccncc2)c1` [Compound 3], the IC50 stood at 13.3 µM.

As to `O=C(Nc1cc(F)ccc1N1CCCCCC1)c1ccncc1` [Compound 4], the IC50 is 13.7 µM.

The values above are taken from patent US20220226341A1, “Pharmaceutical Composition for Alzheimer's Disease” (Kyoto University, priority 2019, published 2022).
